Drawing on a melting point compilation (Tetko et al.; mined from patent text by program, amines drawn as free bases though some values may be those of a salt), this text covers melting point for 64 compounds.

For orientation: melting point means the temperature, or range, at which the solid turns liquid. With `O=C1C=CC2(C=C1)N=C(N1CCN(Cc3cccc(C(F)(F)F)c3)CC1)C=C2c1ccccc1`, the melting point is 135 °C.
As for `O=C(NCc1ccccc1)C1C=Nc2ccccc2S1` (centres undefined), the figure is 160 to 162 °C.
As for `COC(=O)C#CC(=O)c1ccccc1`, the figure is 31 to 35 °C; as for `C/C=C/C1CCC2c3ccc(OCC)c(F)c3OC2C1` (centres undefined), 145 °C; as for `CC1(C)CCc2c(N3CCSCC3)nc3sc4c(NCc5ccncc5)ncnc4c3c2C1`, 237 °C.
To `Cc1scnc1-c1ccc(-c2cc(C(F)(F)F)nn2-c2ccc(S(C)(=O)=O)c(F)c2)cc1` belongs 170 to 172 °C; to `O=[N+]([O-])c1ccc(OCCN2CCN(c3cc(Cl)nnc3Cl)CC2)cc1`, 128 to 129 °C; to `CCOCC1OC(n2cc(C(F)(F)F)c(=O)[nH]c2=O)CC1O` (centres undefined), 188 to 190 °C.
The compound `CCCN(CCCc1c[nH]c2ccc(F)cc12)C1COc2c(ccc3ncccc23)C1` (centres undefined) showed a melting point of 134 °C.
As for `Cc1ccc(S(=O)(=O)N2N=C(c3ccccc3)CC3CCCC32)cc1` (centres undefined), the figure is 171 to 176 °C; as for `Fc1ccc(C(F)(F)F)cc1-c1cccn2nc(Cl)nc12`, 88 to 89 °C.
To `Cc1ccc2ccc3ccccc3c2c1O` belongs 88 to 92 °C; to `CS(=O)(=O)Nc1ccc(NS(C)(=O)=O)c(S)c1`, 174 to 176 °C; to `CN1CCC(c2c[nH]c3ccc(CCS(=O)(=O)N(C)C)cc23)CC1`, 170 to 172 °C.
As for `CN(C)c1ccc(C2CC3(C)C(O)CCC3C3CCC4=CC(=O)CCC4=C23)cc1` (centres undefined), the figure is 166 to 167 °C; as for `Fc1ccc(N2CCN(Cc3n[nH]c4ccccc34)CC2)cc1`, 191 to 192 °C.
As to `CCOC(=O)c1c(N)[nH]c2cccc(Cl)c12`, the melting point was in the range of 140 to 142 °C.
To `CC(C)CC(CS)C(=O)NCC(=O)NCC(=O)O` (centres undefined) belongs 152 to 156 °C.
As for `Clc1ccc2c(c1)CCC(c1ccccc1)S2` (centres undefined), the figure is 91 to 93 °C.
`COC(=O)CCc1ccc(OCCn2c(=O)sc3cc(C(=O)c4ccccc4)ccc32)cc1` yielded a melting point of 74 to 77 °C.
As for `CC(=O)NCC(=O)c1cc(OC(C)=O)c(OC(C)=O)c([N+](=O)[O-])c1`, the figure is 121 to 124 °C; as for `O=C(Nc1nc(OCc2ccc(F)cc2)ncc1F)c1snc(Cl)c1Cl`, 87 to 90 °C.
To `COc1cc(NC(=O)OC(C)CN2CCC(c3nn(C)c4cc(F)ccc34)CC2)cc(OC)c1OC` (centres undefined) belongs 74 to 77 °C.
As for `Cc1cncc(C(=O)Nc2cc(-c3c(-c4ccc(F)c(C)c4)nc4cccnn34)ccn2)c1`, the figure is 238 to 240 °C; as for `COC(=O)c1c(C)oc(C)c1-c1ccc(F)cc1`, 34 to 35 °C.
Regarding `Oc1c2c3c(ccnc3c3ccccc13)CCC2`, the melting point is 260 °C.
`COc1ccc(-c2sc3cc(OC)ccc3c2C(=O)c2ccc(Br)cc2)cc1` registered a melting point of 127 to 129 °C.
To `C#CCN1CCNC1=C[N+](=O)[O-]` belongs 146 to 147 °C; to `CCCCCCCP(=O)(O)O[C@@H](CCCCN)C(=O)N1CCC[C@H]1C(=O)O`, 180 to 186 °C.
To `CC(C)(C)OC(=O)N(CCOc1cccc2[nH]ccc12)Cc1ccccc1` belongs 46 to 48 °C; to `NCc1ccc(-c2ccc(N(Cc3ccccc3)Cc3ccccc3)cc2)cc1`, 122 to 125 °C; to `Cc1cc(C(=O)N[C@@H](CC(C)C)C(=O)N[C@@H](C(C)C)[C@@H](O)c2c(-c3ccccc3)c2=O)n(C)n1`, 115 to 118 °C.
To `CCCCCNc1cccc2c1C(=O)N(C1CCC(=O)NC1=O)C2=O` (centres undefined) belongs 141 to 143 °C; to `COC(=N)Nc1nc(OC)cc(OC)n1`, 91 to 95 °C; to `O=S(=O)(Nc1cccc(/C=C/c2ccccc2)c1)C(F)(F)F`, 62 to 64 °C.
On to `Cn1c(NC2CCNC(Cc3ccccc3)C2)nc2ccccc21` (centres undefined), for which the melting point was 86.3 °C.
To `CCN1C(=O)SC(=Cc2ccc([N+](=O)[O-])cc2)C1=O` belongs 217 to 218 °C; to `ClCCCn1ncc2cc(OCc3ccccc3)ccc21`, 65 to 66 °C; to `O=C(O)/C=C/C=C(c1ccc(F)cc1)c1ccc(F)cc1`, 186 to 188 °C.
As for `C[C@@H]1CN(c2cc3c(c(N)c2F)c(=O)c(C(=O)O)cn3C2CC2)C[C@H](C)N1`, the figure is 253 to 254 °C.
To `CCN(c1nc(C)cc(C(=O)c2ncc[nH]2)n1)c1ccc(C(C)C)cc1Br` belongs 75 to 76 °C; to `Cc1c(CNc2cc(CO)cc(CO)c2)nnn1Cc1ccc(Cl)c(Cl)c1`, 120 °C.
Consider `O=C(Nc1ccccn1)Nc1cccc2c1C1CCCCN1C2=O` (centres undefined), for which the melting point was determined as 142 °C.
To `COc1ccc2c(c1)c(C1CCN(CCOc3ccccc3C(=O)O)CC1)cn2Cc1ccoc1` belongs 153 to 154 °C.
As for `O=C(Nc1cccc([N+](=O)[O-])c1)c1ccccc1SSc1ccccc1C(=O)Nc1cccc([N+](=O)[O-])c1`, the figure is more than 270 °C.
With `Cn1nc(N)cc1COCc1ccccc1`, the melting point came to 214 °C.
Compound `CCc1ccc2c3c(ccc2n1)OCC(CN1CC=C(c2c[nH]c4ccccc24)CC1)O3` (centres undefined) gave a melting point of 190 °C.
As for `CC1CCC2C(=O)N(NC(=O)CCc3cc(C(C)(C)C)c(O)c(C(C)(C)C)c3)C(=O)C2C1` (centres undefined), the melting point is 87 to 92 °C.
To `CN1CC(CCCl)Oc2ccc(Br)cc2C1=O` (centres undefined) belongs 92 to 94 °C; to `CCCCCc1cc(-c2ccc(F)cc2C(C)O)c(C(C)C)nc1C(C)C` (centres undefined), 84 to 86 °C; to `COC(=O)c1ccc2c(c1)Sc1ccccc1NC2`, 149 to 150 °C.
For `FC1(F)c2ccccc2C(F)(F)C(F)(F)c2ccccc21`, the melting point is 53 to 55 °C.
`COc1cc(NCCC(=O)O)c(C(C)=O)cc1OC` had a melting point of 150 to 152 °C.
To `COc1ccc(C(=O)Nc2ccc3ccc(Oc4ccccc4)nc3n2)nn1` belongs 95 °C; to `CCOC(=O)N1Cc2c(n(-c3ccc(F)cc3)c3ccc(F)cc23)C1`, 143 to 145 °C; to `CCOc1ccc(CCNC(=O)/C=C/c2cccs2)cc1S(=O)(=O)NC(=S)NC`, 74 °C.
To `CC(C)(O)C(=O)Nc1nc(-c2ccco2)c(C(=O)c2ccccc2)s1` belongs 153 to 154 °C; to `CC(=O)N(C)N(C(=O)OC(C)(C)C)c1ccc(CC#N)cc1`, 74 to 75 °C.
As for `CC1(c2ccc(F)cc2)Cc2cc(OCC(=O)O)c(Cl)c(Cl)c2C1=O` (centres undefined), the figure is 150 to 156 °C; as for `CC(C)N(CCC(C(N)=O)(c1ccccc1)C1CCCCN1)C(C)C` (centres undefined), 107 to 108 °C; as for `CCCC(=O)NC1=NN(c2cccc(Cl)c2)CC1`, 168 to 169 °C.
`COc1ccc(Cl)cc1C1(F)C(=O)Nc2ccc(C)cc21` (centres undefined) yielded a melting point of 193 to 195 °C.
Regarding `CS(=O)(=O)c1cc(N)ccc1OC(F)(F)F`, the melting point fell in the range of 106 to 109 °C.
With `O=C(c1ccc(Cl)c(Cl)c1)N1C(=O)N2CCCC2(Cc2ccc(Br)cc2)C1=O` (centres undefined), the melting point amounted to 158 °C.
